According to patent US20230263822A1, “MODULATION OF FACTOR 11 EXPRESSION” (Ionis Pharmaceuticals, Inc., priority 2008, published 2023):
Strand notation (5' to 3'): a small letter for the sugar, then the base; units joined by * are phosphorothioate-linked, units joined directly phosphodiester-linked; [ ] holds rarer units or linkages, { } end groups; capitals alone tell only the bases. e = 2'-O-(2-methoxyethyl) (MOE); [5mC] = 5-methylcytosine; d = 2'-deoxy (DNA)

What was measured:
[1] = set-up: species or system CD1 mice; details: mouse, in vivo
Protocol: Five mice from each group were sacrificed 3 days, 28 days and 56 days following the final dose. Livers were harvested for analysis.
The concentration of the full-length oligonucleotide as well as the total oligonucleotide concentration (including the degraded form) was measured. The method used is a modification of previously published methods (Leeds et al., 1996; Geary et al., 1999) which consist of a phenol-chloroform (liquid-liquid) extraction followed by a solid phase extraction. An internal standard (ISIS 355868, a 27-mer 2′-O-methoxyethyl modified phosphorothioate oligonucleotide, […], designated herein as SEQ ID NO: 270) was added prior to extraction. […] Half-lives were then calculated using WinNonlin software ([…]).
The results are presented in Tables 68 and 69, expressed as μg/g liver tissue.

human Factor 11 mRNA = assay: Dose-dependent inhibition of human Factor 11 in HepG2 cells, electroporation 625-20,000 nM (Example 5); format: cell-based; details: ~16 hours
Protocol: The gapmers were also transfected via electroporation and their dose dependent inhibition of human Factor 11 mRNA was measured. Cells were plated at a density of 20,000 cells per well and transfected via electroporation with 625 nM, 1250 nM, 2500 nM, 5,000 nM, 10,000 nM, and 20,000 nM concentrations of antisense oligonucleotide, as specified in Table 12. After a treatment period of approximately 16 hours, RNA was isolated from the cells and human Factor 11 mRNA levels were measured by quantitative real-time PCR. Human Factor 11 primer probe set RTS 2966 was used to measure mRNA levels. Factor 11 mRNA levels were adjusted according to total RNA content, as measured by RIBOGREEN. Results are presented as percent inhibition of human Factor 11, relative to untreated control cells.

[2] = Body and organ weights of cynomolgus monkeys (Example 46); format: in vivo; set-up: Liver weight / Spleen weight / Kidney weight: unit not given here; details: for Kidney weight / Liver weight / Spleen weight: day 55, after euthanasia
Protocol: (§1) Groups, each consisting of two male and two female monkeys, were injected subcutaneously with 25 mg/kg of ISIS 416850, ISIS 449709, ISIS 445522, ISIS 449710, ISIS 449707, ISIS 449711, ISIS 449708, 416858, and ISIS 445531. Antisense oligonucleotide was administered to the monkeys at 25 mg/kg three times per week for week 1 and 25 mg/kg twice per week for weeks 2 to 8. A control group, consisting of two male and two female monkeys was injected subcutaneously with PBS according to the same dosing regimen. Body weights were taken 14 days and 7 days before the start of treatment and were then measured weekly throughout the treatment period. Blood samples were collected 14 days and 5 days before the start of treatment and subsequently several times during the dosing regimen for PT and aPTT measurements, and measurement of various hematologic factors. On day 55, the monkeys were euthanized by exsanguination while under deep anesthesia, and organs harvested for further analysis.
Organ weights were taken after the animals were euthanized on day 55, and livers, kidneys and spleens were harvested.

blood coagulation = assay: PT and aPTT assay in cynomolgus monkeys (Example 46); format: in vivo; details: platelet poor plasma, relative to PBS group
Protocol: as §1
PT and aPTT were measured using platelet poor plasma (PPP) from […] treated with ISIS oligonucleotides. PT and aPTT values are provided in Tables 148 and 149 and are reported as International Normalized Ratio (INR) values. INR values for PT and aPTT were determined by dividing the PT or aPTT value for each experimental group by the PT or aPTT for the PBS treated group. This ratio was then raised to the power of the International Sensitivity Index (ISI) of the tissue factor used. […] Therefore, antisense reduction of Factor 11 with these ISIS oligonucleotides is useful for inhibiting the formation of a thrombus or clot in response to an abnormal vessel wall, but not in response to tissue injury.

[3] = Liver function, ALT, AST, bilirubin in cynomolgus monkeys (Example 46); format: in vivo; details: plasma
Protocol: as §1
Plasma concentrations of alanine transaminase (ALT) and aspartate transaminase (AST) were measured and the results are presented in Tables 152 and 153 expressed in IU/L. Plasma levels of bilirubin were also measured and results are presented in Table 154 expressed in mg/dL. As observed in Tables 152-154, there were no significant increases in any of the liver metabolic markers after antisense oligonucleotide treatment.

[4] = Kidney function, BUN, urine protein to creatinine ratio in cynomolgus monkeys (Example 46); format: in vivo; details: for Urine protein/creatinine ratio: day 49
Protocol: as §1
To evaluate the impact of ISIS oligonucleotides on kidney function, urine samples were collected on different days. […] The ratio of urine protein to creatinine in urine samples after antisense oligonucleotide treatment was also calculated for day 49 and results are presented in Table 156. As observed in Tables 155 and 156, there were no significant increases in any of the kidney metabolic markers after antisense oligonucleotide treatment.

[5] = Day −5 (before start of treatment)
[6] = Day −14 (before start of treatment)

In the case of “416825 (antisense GCCCTTCATGTCTAGGTCCA; 5-10-5 gapmer, further chemistry not given here) [compound 416825]”, the “Half-Life in the liver” value [1] is reported as 16 days, the “percent inhibition of human Factor 11 mRNA relative to untreated control cells” value (human Factor 11 mRNA; 625 nM) is reported as 69% and the “percent inhibition of human Factor 11 mRNA relative to untreated control cells” value (human Factor 11 mRNA; 1250 nM) is reported as 84%. For the same substance, the “percent inhibition of human Factor 11 mRNA relative to untreated control cells” value (human Factor 11 mRNA; 2500 nM) was 91%, the “percent inhibition of human Factor 11 mRNA relative to untreated control cells” value (human Factor 11 mRNA; 5000 nM) was 94% and the “percent inhibition of human Factor 11 mRNA relative to untreated control cells” value (human Factor 11 mRNA; 10000 nM) was 96%. The “percent inhibition of human Factor 11 mRNA relative to untreated control cells” value (human Factor 11 mRNA; 20000 nM) was 97%.
In the case of “417003 (antisense TGGTGCACAGTTTCTGGCAG; 2-13-5 gapmer chemistry, further chemistry not given here) [compound 417003]”, the “Half-Life in the liver” value [1] is reported as 10 days, the “percent inhibition of human Factor 11 mRNA relative to untreated control cells” value (human Factor 11 mRNA; 625 nM) is reported as 60% and the “percent inhibition of human Factor 11 mRNA relative to untreated control cells” value (human Factor 11 mRNA; 1250 nM) is reported as 74%. The “percent inhibition of human Factor 11 mRNA relative to untreated control cells” value (human Factor 11 mRNA; 2500 nM) was 86%, the “percent inhibition of human Factor 11 mRNA relative to untreated control cells” value (human Factor 11 mRNA; 5000 nM) was 90% and the “percent inhibition of human Factor 11 mRNA relative to untreated control cells” value (human Factor 11 mRNA; 10000 nM) was 95%. The “percent inhibition of human Factor 11 mRNA relative to untreated control cells” value (human Factor 11 mRNA; 20000 nM) was 95%.
With “ISIS 445531: 5-8-5 or 6-8-6 MOE microwalk gapmer (Table 44) (antisense eG*eG*e[5mC]*eA*eT*dT*dG*dG*dT*dG*d[5mC]*dA*d[5mC]*eA*eG*eT*eT*eT)” the body weight ([2]; day 1) was 2125 g, the body weight ([2]; day 8) was 2119 g and the body weight ([2]; day 15) was 2109 g. For the same substance, the body weight ([2]; day 22) was 2143 g, the body weight ([2]; day 29) was 2148 g and the body weight ([2]; day 36) was 2191 g. The body weight ([2]; day 43) was 2233 g, the body weight ([2]; day 50) was 2197 g and the Kidney weight [2] was 0.49. For the same substance, the Liver weight [2] was 2.8, the Spleen weight [2] was 0.24 and the body weight ([2]; day −7) was 2092 g. The body weight ([2]; day −14) was 2079 g, the “PT ratio (INR)” value (blood coagulation; Day 10) was 1.00 and the “aPTT ratio relative to PBS group” value (blood coagulation; Day 10) was 0.95. The “PT ratio (INR)” value (blood coagulation; Day 17) was 1.06, the “aPTT ratio relative to PBS group” value (blood coagulation; Day 17) was 1.05 and the “PT ratio (INR)” value (blood coagulation; Day 24) was 1.02. The “aPTT ratio relative to PBS group” value (blood coagulation; Day 24) was 1.00, the “PT ratio (INR)” value (blood coagulation; Day 31) was 1.04 and the “aPTT ratio relative to PBS group” value (blood coagulation; Day 31) was 1.07. For the same substance, the “PT ratio (INR)” value (blood coagulation; Day 38) was 1.03, the “aPTT ratio relative to PBS group” value (blood coagulation; Day 38) was 1.06 and the “PT ratio (INR)” value (blood coagulation; Day 45) was 1.01. For the same substance, the “aPTT ratio relative to PBS group” value (blood coagulation; Day 45) was 1.13, the “PT ratio (INR)” value (blood coagulation; Day 52) was 1.04 and the “aPTT ratio relative to PBS group” value (blood coagulation; Day 52) was 1.15. For the same substance, the “PT ratio (INR)” value (blood coagulation; Day 55) was 1.06, the “aPTT ratio relative to PBS group” value (blood coagulation; Day 55) was 1.19 and the “PT ratio (INR)” value (blood coagulation; Day −5) was 1.00. The “aPTT ratio relative to PBS group” value (blood coagulation; Day −5) was 0.89, the “PT ratio (INR)” value (blood coagulation; Day −14) was 1.06 and the “aPTT ratio relative to PBS group” value (blood coagulation; Day −14) was 1.00. The ALT ([3]; Day 31) was 57 IU/L, the AST ([3]; Day 31) was 47 IU/L and the Bilirubin ([3]; Day 31) was 0.13 mg/dL. For the same substance, the ALT ([3]; Day 55) was 73 IU/L, the AST ([3]; Day 55) was 49 IU/L and the Bilirubin ([3]; Day 55) was 0.11 mg/dL. It also gave an ALT ([3]; Day −5) of 73 IU/L, an AST ([3]; Day −5) of 46 IU/L and a Bilirubin ([3]; Day −5) of 0.18 mg/dL. The ALT ([3]; Day −14) was 84 IU/L, the AST ([3]; Day −14) was 78 IU/L and the Bilirubin ([3]; Day −14) was 0.22 mg/dL. The BUN levels ([4]; Day 31) was 20 mg/dL, the BUN levels ([4]; Day 55) was 22 mg/dL and the BUN levels [4, 5] was 18 mg/dL. The BUN levels [4, 6] was 22 mg/dL and the Urine protein/creatinine ratio [4] was 0.08.
In the case of “ISIS 449707: 3-8-3, 4-8-4, 2-10-2, 3-10-3 or 4-10-4 MOE microwalk gapmer (Table 46) (antisense e[5mC]*eA*e[5mC]*eA*dG*dT*dT*dT*d[5mC]*dT*dG*dG*e[5mC]*eA*eG*eG)”, the body weight ([2]; day 1) is reported as 2107 g, the body weight ([2]; day 8) is reported as 2088 g and the body weight ([2]; day 15) is reported as 2120 g. The body weight ([2]; day 22) was 2142 g, the body weight ([2]; day 29) was 2155 g and the body weight ([2]; day 36) was 2158 g. The body weight ([2]; day 43) was 2197 g, the body weight ([2]; day 50) was 2185 g and the Kidney weight [2] was 0.53. For the same substance, the Liver weight [2] was 2.5, the Spleen weight [2] was 0.24 and the body weight ([2]; day −7) was 2083 g. The body weight ([2]; day −14) was 2072 g, the “PT ratio (INR)” value (blood coagulation; Day 10) was 0.95 and the “aPTT ratio relative to PBS group” value (blood coagulation; Day 10) was 0.92. For the same substance, the “PT ratio (INR)” value (blood coagulation; Day 17) was 0.97, the “aPTT ratio relative to PBS group” value (blood coagulation; Day 17) was 0.94 and the “PT ratio (INR)” value (blood coagulation; Day 24) was 0.95. For the same substance, the “aPTT ratio relative to PBS group” value (blood coagulation; Day 24) was 0.93, the “PT ratio (INR)” value (blood coagulation; Day 31) was 0.96 and the “aPTT ratio relative to PBS group” value (blood coagulation; Day 31) was 0.95. The “PT ratio (INR)” value (blood coagulation; Day 38) was 1.00, the “aPTT ratio relative to PBS group” value (blood coagulation; Day 38) was 0.99 and the “PT ratio (INR)” value (blood coagulation; Day 45) was 0.96. For the same substance, the “aPTT ratio relative to PBS group” value (blood coagulation; Day 45) was 1.00, the “PT ratio (INR)” value (blood coagulation; Day 52) was 0.96 and the “aPTT ratio relative to PBS group” value (blood coagulation; Day 52) was 0.99. The “PT ratio (INR)” value (blood coagulation; Day 55) was 1.00, the “aPTT ratio relative to PBS group” value (blood coagulation; Day 55) was 1.04 and the “PT ratio (INR)” value (blood coagulation; Day −5) was 0.94. The “aPTT ratio relative to PBS group” value (blood coagulation; Day −5) was 0.87, the “PT ratio (INR)” value (blood coagulation; Day −14) was 1.01 and the “aPTT ratio relative to PBS group” value (blood coagulation; Day −14) was 0.90. The ALT ([3]; Day 31) was 52 IU/L, the AST ([3]; Day 31) was 50 IU/L and the Bilirubin ([3]; Day 31) was 0.13 mg/dL. For the same substance, the ALT ([3]; Day 55) was 63 IU/L, the AST ([3]; Day 55) was 52 IU/L and the Bilirubin ([3]; Day 55) was 0.16 mg/dL. For the same substance, the ALT ([3]; Day −5) was 56 IU/L, the AST ([3]; Day −5) was 53 IU/L and the Bilirubin ([3]; Day −5) was 0.19 mg/dL. For the same substance, the ALT ([3]; Day −14) was 54 IU/L, the AST ([3]; Day −14) was 64 IU/L and the Bilirubin ([3]; Day −14) was 0.27 mg/dL. For the same substance, the BUN levels ([4]; Day 31) was 21 mg/dL, the BUN levels ([4]; Day 55) was 20 mg/dL and the BUN levels [4, 5] was 21 mg/dL. The BUN levels [4, 6] was 25 mg/dL and the Urine protein/creatinine ratio [4] was 0.03.
